Like-named read-outs stand apart in the source and are kept apart here.
What was measured:
PAPD5 variant 1 = assay: Y3H ULTImate YChemH screen; assay type: binding; set-up: key: confidence score of A (scale A-D); details: prey PAPD5 variant 1; cDNA Human placenta library
Description: (§1) The two compounds were provided by Roche to HYBRIGENICS SERVICES SAS and tested for permeability and toxicity. Compounds were then screened against HYBRIGENICS's cDNA Human placenta library (PLA). The screens were carried out according to the optimized cell-to-cell mating protocol developed for Hybrigenics ULTImate Y2H™ using at different compound concentration (Table 2).
(§2) Clones obtained from the screen were picked in 96-well format and clones positive for growth under selective conditions (HIS+) were evaluated in a dependency assay using spot assays. Only clones that were able to grow on selective medium in the presence of the tagged compound were being picked up, processed (cell lysis, PCR, gene sequencing) and mapped for protein alignment using Blast analysis.
(§3) Both proteins PAPD5 (variant 1: NP_001035374; variant 2: NP_001035375) and PAPD7 (XP_005248291) were identified by a numerous number of fragments in the Y3H screen for both compounds (DHQ and THP) as described in the Materials and Method section. The identified proteins were ranked with a confidence score of A (scale A-D) by HYBRIGENICS (Table 6).

PAPD7 = assay: Y3H ULTImate YChemH screen; assay type: binding; set-up: key: confidence score of A (scale A-D); details: prey PAPD7; cDNA Human placenta library
Description: as §1, §2, §3

HBV = assay: HBsAg and HBeAg secretion in HepG2.2.15 cells; assay type: cell-based; details: Hepatitis B virus, 72 h, incubated for 3 days, supernatant, CLIA ELISA
Description: To evaluate the impact on HBV antigen expression and secretion, supernatants were collected on Day 11. HBV HBsAg and HBeAg levels were measured using CLIA ELISA Kits (Autobio Diagnostic #CL0310-2, #CL0312-2), according to the manufacturer's protocol. Briefly, 25 μL of supernatant per well were transferred to the respective antibody coated microtiter plate and 25 μL of enzyme conjugate reagent were added. The plate was incubated for 60 min on a shaker at room temperature before the wells were washed five times with washing buffer using an automatic washer. 25 μL of substrate A and B were added to each well. The plates were incubated on a shaker for 10 min at room temperature before luminescence was measured using an Envision luminescence reader (Perkin Elmer).
The potency of DHQ and THP and their variants against HBV infection were measured in HepG2.2.15 cells using HBsAg and HBeAg as read out.
HepG2.2.15 cells (Sells et al 1987 Proc Natl Acad Sci USA 84, 1005-1009) were cultured in 96 well plates (15.000 cells/well in 100 uL) in DMEM+GluTaMax-1 (GiBCO Cat. NO. 10569), 1% Pen Strep (Gibco Cat. No. 15140), 10% FBS (Clontech Cat. No. 631106), Geneticin […] (Invitrogen 10131035). The compunds were tested using three-fold serial dilutions in DMSO with a top concentration of 100 μM and 9 serial dilutions. Each compound was tested in quadricate. The cells were incubated for 3 days, supernatents were collected and HBsAg and HBeAg were measured as described in the Materials and Methods section.

PAPD5 variant 2 = assay: Y3H ULTImate YChemH screen; assay type: binding; set-up: key: confidence score of A (scale A-D); details: prey PAPD5 variant 2; cDNA Human placenta library
Description: as §1, §2, §3

[1] = target: T1, PAPD5 var1 (experimental fragment and full length) (Homo sapiens, UniProt Q8NDF8); assay: Y3H ULTImate YChemH competition with free compound; assay type: binding; details: probe HBX129653 or HBX129654 1 μM, free compound 0-20 μM, FIG. 3-6
T1 construct: PAPD5 var1 full length; host or cells: diploid yeast from YHGX13 (prey) x YPT6AT (DHFR hook)
T1 sequence (Q8NDF8 1-698 isoform Q8NDF8-5): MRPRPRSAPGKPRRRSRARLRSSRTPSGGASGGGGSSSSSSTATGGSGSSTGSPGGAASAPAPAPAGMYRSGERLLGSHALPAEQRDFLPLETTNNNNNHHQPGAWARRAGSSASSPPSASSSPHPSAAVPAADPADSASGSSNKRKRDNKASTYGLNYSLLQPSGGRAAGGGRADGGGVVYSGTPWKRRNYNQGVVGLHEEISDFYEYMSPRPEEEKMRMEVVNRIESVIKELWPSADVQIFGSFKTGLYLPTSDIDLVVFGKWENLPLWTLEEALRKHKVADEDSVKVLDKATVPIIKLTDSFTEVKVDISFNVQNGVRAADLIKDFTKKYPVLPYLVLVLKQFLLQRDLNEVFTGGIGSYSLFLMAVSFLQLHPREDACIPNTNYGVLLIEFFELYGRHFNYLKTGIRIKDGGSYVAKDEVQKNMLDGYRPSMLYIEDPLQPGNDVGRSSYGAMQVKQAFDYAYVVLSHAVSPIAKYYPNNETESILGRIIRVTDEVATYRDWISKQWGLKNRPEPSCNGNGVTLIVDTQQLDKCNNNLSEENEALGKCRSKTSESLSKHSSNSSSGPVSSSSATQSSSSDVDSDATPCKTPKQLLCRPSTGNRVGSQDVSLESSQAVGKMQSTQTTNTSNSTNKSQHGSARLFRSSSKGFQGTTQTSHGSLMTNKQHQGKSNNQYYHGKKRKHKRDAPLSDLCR
Description: (§4) The competition assays were performed on selective medium at 8 concentrations of the free compound (0, 0.25, 0.5, 1, 2, 5, 10 and 20 μM) and a consistent concentration for the tagged Y3H-compound (1 μM).

[2] = target: T2, PAPD7 varX1 (experimental fragment and full length) (Homo sapiens, UniProt Q5XG87); assay: Y3H ULTImate YChemH competition with free compound; assay type: binding; details: probe HBX129653 or HBX129654 1 μM, free compound 0-20 μM, FIG. 3-6
T2 construct: PAPD7 var1 full length; host or cells: diploid yeast from YHGX13 (prey) x YPT6AT (DHFR hook)
T2 sequence (Q5XG87 whole entry, the tested form may be a part): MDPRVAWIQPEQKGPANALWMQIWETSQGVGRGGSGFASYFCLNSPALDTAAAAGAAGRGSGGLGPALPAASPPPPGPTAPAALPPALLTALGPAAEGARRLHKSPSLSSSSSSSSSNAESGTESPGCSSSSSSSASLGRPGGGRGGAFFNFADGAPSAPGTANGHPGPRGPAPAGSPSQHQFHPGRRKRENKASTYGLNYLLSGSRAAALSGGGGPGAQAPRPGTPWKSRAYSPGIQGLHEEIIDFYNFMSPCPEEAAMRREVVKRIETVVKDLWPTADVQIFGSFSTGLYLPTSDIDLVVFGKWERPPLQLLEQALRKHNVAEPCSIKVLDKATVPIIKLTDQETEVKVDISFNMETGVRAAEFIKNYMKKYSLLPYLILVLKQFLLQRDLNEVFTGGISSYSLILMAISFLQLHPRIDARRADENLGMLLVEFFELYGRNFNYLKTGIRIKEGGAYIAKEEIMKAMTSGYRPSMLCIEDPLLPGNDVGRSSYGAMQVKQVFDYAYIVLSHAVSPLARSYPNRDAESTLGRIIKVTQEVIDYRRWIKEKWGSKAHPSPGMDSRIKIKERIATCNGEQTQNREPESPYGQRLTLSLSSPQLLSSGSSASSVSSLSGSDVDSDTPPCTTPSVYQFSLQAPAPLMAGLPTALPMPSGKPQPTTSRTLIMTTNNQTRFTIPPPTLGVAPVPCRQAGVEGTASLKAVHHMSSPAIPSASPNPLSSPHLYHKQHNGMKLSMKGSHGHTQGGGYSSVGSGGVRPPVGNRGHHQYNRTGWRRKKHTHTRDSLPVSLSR
Description: as §4

[3] = tested on: PAPD5 variant 1 and variant 2 prey fragments; assay: Y3H ULTImate YChemH 1-by-1 validation, prey fragments; assay type: binding, human; details: PAPD5 variant 1 and 2 fragments; tested at 5, 10 and 20 μM; FIG. 1
Description: (§5) In this validation step each one identified fragment prey and one chemical probe (HBX129653, HBX129654) is tested in a 1-by-1 experiment. The plasmids from 3 selected preys from the screening library were extracted from the yeast cells, amplified in E. coli and re-transformed into YHGX13 yeast cells. For each interaction, DO1, 1/10, 1/100 and 1/1000 of the diploid yeast culture expressing both hook and prey constructs were spotted on a selective medium without tryptophan, leucine and histidine and supplemented with the chemical probe and FK506. Interactions were tested in duplicate. One plate was used per chemical compound and concentration (DMSO, 5, 10 and 20 μM of HBX129653, 5, 10 and 20 μM of HBX129654, 5 μM of HBX24786 Trimethoprim (TMP) and 5 μM of HBX129634 (TMP-PEG5-OH)). Plates were incubated at 30° C. for 3 days.
(§6) In a first validation step three fragments identified in the first screen were selected for the 1-by-1 validation assay (as described in the Materials and Method section) and tested at three different concentrations (5, 10 and 20 μM) (Table 7).

PAPD7 prey fragment = assay: as above; assay type: binding, human; details: tested at 5, 10 and 20 μM, FIG. 1
Description: as §5, §6

hepatitis C virus (HCV) = assay: Activity against hepatitis C virus (data not shown)
PAPD5 var1 full length = target: T3, PAPD5 var1 full length (Homo sapiens, UniProt Q8NDF8); assay: Y3H ULTImate YChemH 1-by-1 validation, full length proteins; assay type: binding; details: tested at 5, 10 and 20 μM, FIG. 2
T3 construct: PAPD5 var1 full length; host or cells: diploid yeast from YHGX13 (prey) x YPT6AT (DHFR hook)
T3 sequence (Q8NDF8 1-698 isoform Q8NDF8-5): as the sequence (Q8NDF8 1-698 isoform Q8NDF8-5) above
Excerpt: (§7) The coding sequence of full-length PAPD5var1 (NM_001040284.2) and PAPD7varX1 (XM_005248234.2) were reconstituted from an N-terminal codon-optimized gene fragment (to remove high GC content) and commercially available clones of the C-terminal regions of the proteins and cloned in frame with the Gal4 Activation Domain (AD) into plasmid pP7 (AD-Prey), derived from the original pGADGH (Bartel et al., 1993 in Cellular interactions in development: A practical approach. ed. Hartley, D. A., Oxford University Press, Oxford, pp. 153-179). The constructs were checked by sequencing the entire inserts. For each prey, a mini-mating was carried out between YHGX13 (Y187 ade2-101::IoxP-kanMX-IoxP, matα) transformed with the prey plasmids and YPT6AT yeast cells (mata) transformed with the DHFR hook (Dihydrofolate reductase) to produce a diploid yeast culture. For each interaction, DO1, 1/10, 1/100 and 1/1000 of the diploid yeast culture expressing both hook and prey constructs were spotted on a selective medium without tryptophan, leucine and histidine and supplemented with the chemical probe and FK506. Interactions were tested in duplicate. One plate was used per chemical compound and concentration (DMSO, 5, 10 and 20 μM of HBX129653, 5, 10 and 20 μM of HBX129654, 5 μM of HBX24786 Trimethoprim (TMP) and 5 μM of HBX129634 (TMP-PEG5-OH)). Plates were incubated at 30° C. for 3 days.
(§8) In a second validation step, full length proteins for PAPD5 and PAPD7 were synthesized and used for 1-by-1 validation (as described in the Materials and Method section) with DHQ and THP (Table 8).

PAPD7 var1 full length = target: T4, PAPD7 var1 full length (Homo sapiens, UniProt Q5XG87); assay: as above; assay type: binding; details: tested at 5, 10 and 20 μM, FIG. 2
T4 construct: PAPD7 var1 full length; host or cells: diploid yeast from YHGX13 (prey) x YPT6AT (DHFR hook)
T4 sequence (Q5XG87 whole entry): as the sequence (Q5XG87 whole entry, the tested form may be a part) above
Excerpt: as §7, §8

## COc1cc2c(cc1OCCOCCOCCOCCOCCOCCOc1c(OC)cc(Cc3cnc(N)nc3N)cc1OC)C[C@@H](C(C)(C)C)n1cc(C(=O)O)c(=O)cc1-2 [HBX129653]
PAPD5 variant 1
  Confidence score: A
PAPD7
  Confidence score: A
HBV; read-out: IC50 HBsAg
  IC50: 1180 nM

## COc1cc(Cc2cnc(N)nc2N)cc(OC)c1OCCOCCOCCOCCOCCOCCOc1cc(N2CCc3nc(-c4ncccn4)ncc3[C@H]2C)cc(F)c1F [HBX129654]
PAPD7
  Confidence score: A
PAPD5 variant 2
  Confidence score: A
HBV; read-out: IC50 HBsAg
  IC50: 299 nM

## COCCCOc1cc2c(cc1OC)-c1cc(=O)c(C(=O)O)cn1[C@@H](C(C)C)C2 [INACT653]
[1]
  competition of free compound with chemical probe: less binding affinity
[2]
  competition of free compound with chemical probe: less binding affinity

## COc1cccc(-c2ncc3c(n2)CCN(c2cc(F)c(F)c(OC)c2)C3)n1 [INACT654]
HBV; read-out: IC50 HBsAg
  IC50: > 25000 nM

## COCCCOc1cc2c(cc1Cl)-c1cc(=O)c(C(=O)O)cn1[C@H](C(C)C)C2 [MOL653]
[3]
  1-by-1 validation of binding to prey fragments: specific binders
PAPD7 prey fragment
  1-by-1 validation of binding to prey fragments: specific binders
Hepatitis C virus (HCV)
  activity against hepatitis C virus (HCV): inactive
PAPD5 var1 full length
  1-by-1 validation of interaction with full length protein: confirmed at the lowest tested concentration
PAPD7 var1 full length
  1-by-1 validation of interaction with full length protein: confirmed at the lowest tested concentration
[1]
  competition of free compound with chemical probe: competition could be observed
[2]
  competition of free compound with chemical probe: competition could be observed
HBV; read-out: IC50 HBeAg
  IC50: 7 nM
HBV; read-out: IC50 HBsAg
  IC50: 3 nM

## COc1cc(N2CCc3nc(-c4ncccn4)ncc3[C@H]2C)cc(F)c1F [MOL654]
[3]
  1-by-1 validation of binding to prey fragments: specific binders
PAPD7 prey fragment
  1-by-1 validation of binding to prey fragments: specific binders
Hepatitis C virus (HCV)
  activity against hepatitis C virus (HCV): inactive
PAPD5 var1 full length
  1-by-1 validation of interaction with full length protein: confirmed at the lowest tested concentration
PAPD7 var1 full length
  1-by-1 validation of interaction with full length protein: confirmed at the lowest tested concentration
[1]
  competition of free compound with chemical probe: competition could be observed
[2]
  competition of free compound with chemical probe: competition could be observed
HBV; read-out: IC50 HBsAg
  IC50: 3 nM

— US11191775B2, “PAPD5 and PAPD7 inhibitors for treating a hepatitis B infection” (HOFFMANN-LA ROCHE INC., priority 2016, dated 2021)
